Where a name gives a salt, the structure may show the parent alone.
Key:
Tankyrases = conditions: read-out: EC50 [M] TNKS cellular assay; DLD1 cells, 24 hours, Axin2 increase
TNKS1 = target: T1, TNKS1 (Homo sapiens, UniProt O95271); assay: TNKS1 activity ELISA (autoparsylation assay); assay type: biochemical; conditions: GST-tagged Tnks-1 (1023-1327 aa)
T1 construct: GST-tagged Tnks-1 (1023-1327 aa, prepared in-house); made in house
Procedure: (§1) Description of the TNKS1 and TNKS2 ELISA Assay
(§2) Biochemical Activity Testing of TNKS 1 and 2: Activity ELISA (Autoparsylation Assay)
(§3) For analysis of autoparsylation activity of TNKS 1 and 2 an activity ELISA iss performed: In the first step GST tagged TNKS is captured on a Glutathione coated plate. Then the activity assay with biotinylated NAD is performed in the absence/presence of the compounds. During the enzymatic reaction GST tagged TNKS transfers biotinylated ADP-ribose to itself from biotinylated NAD as co-substrate. For the detection streptavidin-HRP conjugate is added that binds to the biotinylated TNKS and is thereby captured to the plates. The amount of biotinylated resp. autoparsylated TNKS is detected with a luminescence substrate for HRP. The level of the luminescence signal correlats directly with the amount of autoparsylated TNKS and therefore with activity of TNKS.
(§4) The activity ELISA is performed in 384 well Glutathione coated microtiter plates (Express capture Glutathione coated plate, Biocat, Heidelberg, Germany). The plates are pre-equilibrated with PBS. […] The plates are washed 3 times with PBS-Tween-20. The wells are blocked by incubation at room temperature for 20 minutes with 50 μl blocking buffer (PBS, 0.05% Tween-20, 0.5% BSA). Afterwards the plates are washed 3 times with PBS-Tween-20. […] The reaction is stopped by 3 times washing with PBS-Tween-20. For the detection 50 μl of 20 ng/μl Streptavidin, HRP conjugate (MoBiTec, Göttingen, Germany) in PBS/0.05% Tween-20/0.01% BSA are added and the plates are incubated for 30 minutes at room temperature. After three times washing with PBS-Tween-20 50 μl of SuperSignal ELISA Femto Maximum sensitivity substrate solution (ThermoFisherScientific (Pierce), Bonn, Germany) are added. Following a 1 minute incubation at room temperature luminescence signals are measured with an Envision multimode reader (Perkin Elmer LAS Germany GmbH) at 700 nm. The full value used is the inhibitor-free reaction. […] The inhibitory values (IC50) are determined using either the program Symyx Assay Explorer® or Condosseo® from GeneData.

TNKS2 = target: T2, TNKS2 (Homo sapiens, UniProt Q9H2K2); assay: TNKS2 activity ELISA (autoparsylation assay); assay type: biochemical; conditions: GST-tagged Tnks-2 (873-1166 aa); read-out: IC50 [M] TNKS2 ELISA
T2 construct: GST-tagged Tnks-2 (873-1166 aa, prepared in-house); made in house
Procedure: as §1, §2, §3, §4

T2 sequence (Q9H2K2 873-1166): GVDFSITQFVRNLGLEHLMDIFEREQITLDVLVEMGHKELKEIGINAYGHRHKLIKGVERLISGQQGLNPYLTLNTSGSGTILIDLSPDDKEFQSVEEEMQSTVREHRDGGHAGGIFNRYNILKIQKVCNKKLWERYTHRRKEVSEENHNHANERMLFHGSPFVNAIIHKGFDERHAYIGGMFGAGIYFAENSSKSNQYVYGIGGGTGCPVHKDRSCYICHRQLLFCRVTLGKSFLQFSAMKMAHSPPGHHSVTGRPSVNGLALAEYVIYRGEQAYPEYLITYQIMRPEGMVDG
T1 sequence (O95271 1023-1327): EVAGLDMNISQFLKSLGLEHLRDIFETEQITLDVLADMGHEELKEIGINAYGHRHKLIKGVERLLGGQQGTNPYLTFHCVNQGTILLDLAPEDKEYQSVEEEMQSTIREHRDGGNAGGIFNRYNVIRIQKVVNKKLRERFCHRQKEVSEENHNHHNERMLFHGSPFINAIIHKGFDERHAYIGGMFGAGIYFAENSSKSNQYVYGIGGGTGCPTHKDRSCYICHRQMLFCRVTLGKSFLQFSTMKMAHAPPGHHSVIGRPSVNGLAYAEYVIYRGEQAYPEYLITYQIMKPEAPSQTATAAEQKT

| SMILES | EC50 (Tankyrases) [M] | IC50 (TNKS1) [µM] | IC50 (TNKS2) [M] |
| --- | --- | --- | --- |
| COc1ccc(C(=O)C2CCN(C(=O)CCCc3cn4nc(C)cc4c(=O)[nH]3)CC2)cc1 [Compound C12, 6-{4-[4-(4-Methoxy-benzoyl)-piperidin-1-yl]-4-oxo-butyl}-2-methyl-5H-pyrazolo[1,5-a]pyrazin-4-one] | 4.9e-10 | 0.00013 | 1.4e-10 |
| COc1ccc(C(=O)C2CCN(C(=O)CCCc3cn4c(F)ccc4c(=O)[nH]3)CC2)cc1 [Compound C9, 6-Fluoro-3-{4-[4-(4-methoxy-benzoyl)-piperidin-1-yl]-4-oxo-butyl}-2H-pyrrolo[1,2-a]pyrazin-1-one] | 7.2e-10 | 0.0002 | 1.3e-10 |
| COc1ccc(C(=O)C2CCN(C(=O)CCCc3cn4cncc4c(=O)[nH]3)CC2)cc1 [Compound C10, 6-{4-[4-(4-Methoxy-benzoyl)-piperidin-1-yl]-4-oxo-butyl}-7H-imidazo[1,5-a]-pyrazin-8-one] | 6.7e-09 | 0.00032 | 1.3e-10 |
| Cn1cc(C(=O)C2CCN(C(=O)CCCc3cn4cncc4c(=O)[nH]3)CC2)cn1 [Compound C207, 6-{4-[4-(1-Methylpyrazole-4-carbonyl)-1-piperidyl]-4-oxo-butyl}-7H-imidazo[1,5-a]pyrazin-8-one] | 1.1e-06 | 0.0071 | 2.8e-09 |
| COc1ccc(C(=O)C2CCN(C(=O)CCCc3cn4cccc4c(=O)[nH]3)CC2)cc1 [Compound C2, 3-{4-[4-(4-Methoxy-benzoyl)-piperidin-1-yl]-4-oxo-butyl}-2H-pyrrolo[1,2-a]-pyrazin-1-one] | 5e-10 | 0.00024 | 1.4e-10 |
| CCc1cc(=O)[nH]c(CCCC(=O)N2CCC(C(=O)c3ccc(F)cc3)CC2)n1 [Compound C252, 6-Ethyl-2-{4-[4-(4-fluoro-benzoyl)-piperidin-1-yl]-4-oxo-butyl}-3H-pyrimidin-4-one] | – | 0.035 | 1.7e-08 |
| COc1ccc(C(=O)C2CCN(C(=O)CCCc3cn4ccnc4c(=O)[nH]3)CC2)cc1 [Compound C13, 6-{4-[4-(4-Methoxy-benzoyl)-piperidin-1-yl]-4-oxo-butyl}-7H-imidazo[1,2-a]-pyrazin-8-one] | 4.1e-07 | 0.0012 | 7.4e-10 |
| CCn1cc(C(=O)C2CCN(C(=O)CCCc3nc4c(c(=O)[nH]3)COCC4)CC2)cn1 [Compound C228, 2-{4-[4-(1-Ethyl-1H-pyrazole-4-carbonyl)-piperidin-1-yl]-4-oxo-butyl}-3,5,7,8-tetrahydro-pyrano[4,3-d]pyrimidin-4-one] | 2.9e-06 | 0.014 | 2.2e-09 |
| CC(C)n1cc(C(=O)C2CCN(C(=O)CCCc3nc4c(cnn4C)c(=O)[nH]3)CC2)cn1 [Compound C218, 6-{4-[4-(1-Isopropyl-1H-pyrazole-4-carbonyl)-piperidin-1-yl]-4-oxo-butyl}-1-methyl-1,5-dihydro-pyrazolo[3,4-d]pyrimidin-4-one] | 1.4e-07 | 0.002 | 8.5e-10 |
| CCc1cc(=O)[nH]c(CCCC(=O)N2CCC(C(=O)c3ccc(OC)nc3)CC2)n1 [Compound C253, 6-Ethyl-2-{4-[4-(6-methoxy-pyridine-3-carbonyl)-piperidin-1-yl]-4-oxo-butyl}-3H-pyrimidin-4-one] | 7e-07 | 0.031 | 1.9e-08 |
| COc1ccc(C(=O)C2CCN(C(=O)CCCc3nc(C(C)C)cc(=O)[nH]3)CC2)cc1 [Compound C254, 6-Isopropyl-2-{4-[4-(4-methoxy-benzoyl)-piperidin-1-yl]-4-oxo-butyl}-3H-pyrimidin-4-one trifluoroacetate] | 2.6e-07 | 0.028 | 1.5e-08 |
| Cc1nc(CCCC(=O)N2CCC(C(=O)c3cnn(C)c3)CC2)[nH]c(=O)c1C [Compound C242, 5,6-Dimethyl-2-{4-[4-(1-methyl-1H-pyrazole-4-carbonyl)-piperidin-1-yl]-4-oxo-butyl}-3H-pyrimidin-4-one] | 8.8e-07 | 0.024 | 7.1e-09 |
| CC(C)c1cc(=O)[nH]c(CCCC(=O)N2CCC(C(=O)c3ccc(F)cc3)CC2)n1 [Compound C255, 2-{4-[4-(4-Fluorobenzoyl)-1-piperidyl]-4-oxo-butyl}-4-isopropyl-1H-pyrimidin-6-one trifluoroacetate] | 2.7e-06 | 0.11 | 4.9e-08 |
| CCc1cc(=O)[nH]c(CCCC(=O)N2CCC(C(=O)c3ccc(OC)cc3)CC2)n1 [Compound C251, 6-Ethyl-2-{4-[4-(4-methoxy-benzoyl)-piperidin-1-yl]-4-oxo-butyl}-3H-pyrimidin-4-one] | 7e-08 | 0.0078 | 2.9e-09 |
| COc1ccc(C(=O)C2CCN(C(=O)CCCc3nc(C(C)C)cc(=O)[nH]3)CC2)cn1 [Compound C256, 4-Isopropyl-2-{4-[4-(6-methoxypyridine-3-carbonyl)-1-piperidyl]-4-oxo-butyl}-1H-pyrimidin-6-one trifluoroacetate] | 2.6e-06 | 0.16 | 6.5e-08 |
| CC(C)(O)c1ccc(C(=O)C2CCN(C(=O)CCCc3nc4c(c(=O)[nH]3)COCC4)CC2)cc1 [Compound C200, 2-(4-{4-[4-(1-Hydroxy-1-methyl-ethyl)-benzoyl]-piperidin-1-yl}-4-oxo-butyl)-3,5,7,8-tetrahydro-pyrano[4,3-d]pyrimidin-4-one] | 3.7e-06 | 0.17 | 2.2e-08 |
| COc1ccc(C(=O)C2CCN(C(=O)CCCc3nc4c(C)scc4c(=O)[nH]3)CC2)cn1 [Compound C114] | – | 0.00068 | – |
| CC(C)c1cc(=O)[nH]c(CCCC(=O)N2CCC(C(=O)c3cnn(C)c3)CC2)n1 [Compound C257, 4-Isopropyl-2-{4-[4-(1-methylpyrazole-4-carbonyl)-1-piperidyl]-4-oxo-butyl}-1H-pyrimidin-6-one trifluoroacetate] | 9.3e-06 | 0.11 | 5.8e-08 |
| Cn1cc(C(=O)C2CCN(C(=O)CCCc3nn4cccc4c(=O)[nH]3)CC2)cn1 [Compound C146, 2-{4-[4-(1-Methyl-1H-pyrazole-4-carbonyl)-piperidin-1-yl]-4-oxo-butyl}-3H-pyrrolo[2,1-f][1,2,4]triazin-4-one] | 8.7e-08 | 0.0022 | 1.4e-09 |
| O=C(c1ccc(F)c(F)c1)C1CCN(C(=O)CCCc2nc3c(c(=O)[nH]2)COCC3)CC1 [Compound C262, 2-{4-[4-(3,4-Difluorobenzoyl)-1-piperidyl]-4-oxo-butyl}-3,5,7,8-tetrahydro-pyrano[4,3-d]pyrimidin-4-one] | – | 0.0071 | 1.2e-09 |
| O=C(c1ccc(F)cc1)C1CCN(C(=O)CCCc2noc3ccccc23)CC1 [Compound C259, 4-(1,2-Benzoxazol-3-yl)-1-[4-(4-fluorobenzoyl)-1-piperidyl]butan-1-one] | – | 0.73 | 4.6e-07 |
| COc1ccc(C(=O)C2CCN(C(=O)CCCc3noc4ccccc34)CC2)cc1 [Compound C258, 4-(1,2-Benzoxazol-3-yl)-1-[4-(4-methoxybenzoyl)-1-piperidyl]butan-1-one] | – | 0.15 | 9.5e-08 |
| CC(F)(F)c1ccc(C(=O)C2CCN(C(=O)CCCc3nc4c(c(=O)[nH]3)COCC4)CC2)cc1 [Compound C263, 2-{4-{4-[4-(1,1-Difluoroethyl)benzoyl]-1-piperidyl}-4-oxo-butyl}-3,5,7,8-tetra-hydropyrano[4,3-d]pyrimidin-4-one] | – | 0.0051 | 3.3e-10 |
